Source: publication PMC7391456, “Targeting fibroblast activation protein (FAP): next generation PET radiotracers using squaramide coupled bifunctional DOTA and DATA^5m chelators” (EJNMMI Radiopharmacy and Chemistry, 2020)
Several values for one entry are separate records, joined by “and”; a condition that tells them apart may be missing. Identical values can stand only once.

How the values were obtained:
[1] = target: T1, human FAP (Homo sapiens, UniProt Q12884); assay: FAP inhibition assay (IC50, Z-Gly-Pro-AMC substrate); type: biochemical; details: for IC50: Z-Gly-Pro-AMC 50 μM, pH 8, 15 min pre-incubation at 37 °C; for Selectivity index (IC50 PREP / IC50 FAP): ratio of the IC50 values for FAP and PREP
T1 construct: the human secretion signal was replaced with the HoneyBee mellitin secretion signal; HoneyBee mellitin secretion signal (replaces the native signal-anchor) (N); C-terminal tag of the BaculoDirect C-term kit (C); made in house; host or cells: Sf9 insect cells (baculovirus); purified from the supernatant
T1 sequence (Q12884 26-760 limits assumed): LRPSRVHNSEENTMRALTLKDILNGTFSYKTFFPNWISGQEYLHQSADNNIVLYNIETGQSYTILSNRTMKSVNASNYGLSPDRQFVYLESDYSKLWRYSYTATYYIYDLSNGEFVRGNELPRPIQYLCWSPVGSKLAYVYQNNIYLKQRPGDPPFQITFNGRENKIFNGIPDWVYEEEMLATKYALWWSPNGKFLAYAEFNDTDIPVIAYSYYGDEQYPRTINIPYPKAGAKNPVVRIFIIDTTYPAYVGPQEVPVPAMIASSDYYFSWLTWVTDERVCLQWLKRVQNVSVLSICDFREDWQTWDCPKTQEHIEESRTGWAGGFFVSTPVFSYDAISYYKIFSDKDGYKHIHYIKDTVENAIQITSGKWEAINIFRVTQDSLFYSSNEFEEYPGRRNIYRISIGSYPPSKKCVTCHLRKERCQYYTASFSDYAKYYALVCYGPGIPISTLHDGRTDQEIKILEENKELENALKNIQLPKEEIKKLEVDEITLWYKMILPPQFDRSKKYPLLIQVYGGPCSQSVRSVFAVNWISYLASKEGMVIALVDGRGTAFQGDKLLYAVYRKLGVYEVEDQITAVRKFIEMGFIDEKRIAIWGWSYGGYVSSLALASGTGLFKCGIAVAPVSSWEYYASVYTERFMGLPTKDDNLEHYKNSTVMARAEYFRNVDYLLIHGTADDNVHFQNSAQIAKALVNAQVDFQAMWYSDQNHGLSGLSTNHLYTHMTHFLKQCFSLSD
Description: (§1) Enzymes: A gateway-entry clone for human FAP was purchased from Dharmacon (Accession number DQ891423) and the human secretion signal was replaced with the HoneyBee mellitin secretion signal. For transfection and expression of FAP in Sf9 insect cells, the C-terminal BaculoDirect kit from LifeTechnologies was used. The enzyme was purified from the supernatant of the insect cells using immobilized Ni-chelating chromatography (GE healthcare, Diegem, Belgium), followed by anion-exchange chromatography using a 1 mL HiTrap Q (GE healthcare, Diegem, Belgium). Human recombinant PREP was expressed in BL21(DE3) cells and purified using immobilized Co-chelating chromatography (GE healthcare) followed by anion-exchange chromatography on a 1 ml Mono Q column (GE healthcare).
(§2) Eight concentrations of inhibitors were tested. The final DMSO concentration was kept constant during the experiment to exclude any solvent effects. Inhibitors were pre-incubated with the enzyme for 15 min at 37 °C, afterwards the substrate was added and the velocities of AMC release were measured kinetically at λex = 380 nm, λem = 465 nm for at least 10 min at 37 °C. The Infinite 200 (Tecan Group Ltd.) micro-titer plate reader and the Magellan software were used for measurement and data processing respectively.
(§3) The data were fitted using a non-linear fit model in GraFit 7 software, according to the following equation: y=range/1+x/IC50^s where y is the value of the residual enzymatic activity compared to a non-inhibited sample, x is the final inhibitor concentration in the assay, s is the slope factor and the IC50 is the half maximal inhibitory concentration.

[2] = target: T2, Human recombinant PREP (Homo sapiens, UniProt P48147); assay: PREP inhibition assay (IC50, N-succinyl-Gly-Pro-AMC substrate); type: biochemical; details: N-succinyl-Gly-Pro-AMC 250 μM, pH 7.4, 15 min pre-incubation at 37 °C
T2 sequence (P48147 1-710): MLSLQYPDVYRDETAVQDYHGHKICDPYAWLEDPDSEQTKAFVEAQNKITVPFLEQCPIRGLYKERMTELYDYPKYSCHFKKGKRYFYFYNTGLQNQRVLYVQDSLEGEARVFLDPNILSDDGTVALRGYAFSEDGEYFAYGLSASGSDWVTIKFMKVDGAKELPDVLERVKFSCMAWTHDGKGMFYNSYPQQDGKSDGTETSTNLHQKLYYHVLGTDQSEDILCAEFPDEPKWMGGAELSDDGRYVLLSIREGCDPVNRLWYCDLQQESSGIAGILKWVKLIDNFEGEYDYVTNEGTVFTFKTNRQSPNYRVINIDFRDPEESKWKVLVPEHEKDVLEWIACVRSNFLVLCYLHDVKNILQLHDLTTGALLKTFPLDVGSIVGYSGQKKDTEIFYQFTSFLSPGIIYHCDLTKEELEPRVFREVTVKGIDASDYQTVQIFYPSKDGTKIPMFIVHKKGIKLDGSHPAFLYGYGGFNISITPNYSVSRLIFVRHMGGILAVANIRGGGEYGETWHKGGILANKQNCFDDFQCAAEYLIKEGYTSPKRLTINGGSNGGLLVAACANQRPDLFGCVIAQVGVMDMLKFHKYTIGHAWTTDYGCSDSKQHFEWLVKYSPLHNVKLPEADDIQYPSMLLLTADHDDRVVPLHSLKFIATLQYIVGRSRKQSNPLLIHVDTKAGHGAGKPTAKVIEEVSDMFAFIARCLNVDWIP
Description: as §1
as §2, with “concentration is” for “concentration was”, “any” for “any solvent”, “data processing,” for “data processing”
as §3

[3] = Stability studies of gallium-68 complexes in media (EtOH, human serum, saline, PBS); type: physicochemical
Protocol: (§4) Gallium-68 stability studies against transmetallation (Fe, Cu, Ca, Mg), transchelation (EDTA, DTPA) as well as in HS, EtOH and saline (0.9% isotone NaCl-solution) were performed. 50 μl of the [^68Ga]Ga-DOTA.SA.FAPi labeling solution with > 95% radiochemical purity were added to 1 mL of the respective media. The measured time points for gallium-68 were 15, 30, 45, 60, 90, 120 min. HS (human male AB plasma, USA origin) was bought from Sigma Aldrich, PBS was purchased from Sigma Aldrich and 0.9% saline from B. Braun Melsungen AG (Melsungen, Germany).

[4] = Gallium-68 stability against transmetallation (Fe, Cu, Ca, Mg) and transchelation (EDTA, DTPA); type: physicochemical
Protocol: as §4

[5] = test system: HT-29 xenograft mice; assay: Micro-PET/CT imaging in HT-29 tumor-bearing mice; type: in vivo, mouse; details: PET 60 min p.i.
Protocol: (§5) In vivo tumor model: HT-29 (human colon adenocarcinoma, ATCC, Rockville, Maryland) cells were routinely cultured in Dulbecco’s Modified Eagle Medium supplemented with 10% heat inactivated foetal bovine serum (FBS), 2 mM glutamine, 1% sodium pyruvate and 1% penicillin/streptomycin (Gibco, Life technologies). After detaching the cells, the number of viable cells was counted with the automated Muse™ Cell Analyzer (Merck Millipore). For the HT-29 subcutaneous model, 10.10^6 viable cells, suspended in 100 μl PBS, were inoculated in the right hind leg of female 6-week-old CD1^−/− Foxn1nu mice (n = 3), obtained from Charles River Laboratories (L’Arbresle, France). The animals were kept under environmentally controlled conditions (12 h light/dark cycle, 20–24 °C and 40–70% relative humidity) with food and water ad libitum. When tumors reached an approximate volume of 400 mm^3, 3 mice underwent μPET imaging. All experimental procedures and protocols were performed in accordance with European Directive 86/609/EEC Welfare and Treatment of Animals and were approved by the local ethical commission (2017–070, University of Antwerp, Belgium).
Micro-PET imaging: Micro-PET scans were carried out using an Inveon small-animal PET/CT scanner (Siemens), after i.v. injection of 4 nmol of [^68Ga]-DOTA.SA.FAPi (8.6 MBq, molar activity of 2.1 GBq/ μmol) into tumor bearing mice (n = 3), under isoflurane anesthesia (5% for induction, 2% for maintenance). Static whole-body PET images were acquired 60 min after injection of the radiotracer. Following each PET acquisition, a whole-body CT scan was acquired to obtain the animal’s anatomical information individually.
For quantitative analysis, PET data were reconstructed using 3-dimensional ordered subset expectation maximization (OSEM3D, 16 subsets and 2 iterations) and 18 maximum a posteriori (MAP) iterations including scatter and attenuation correction (matrix size, 128 × 128 × 159; voxel size, 0.776 × 0.776 × 0.776 mm;). Volumes of interest (VOIs) were manually drawn on the PET/CT images using PMOD (version 3.6; PMOD Technologies) to delineate the tumor, heart and muscle.

[6] = test system: HT-29 xenograft mice; assay: Ex vivo biodistribution in HT-29 xenograft mice; parameters: species or system mouse
Protocol: as §5
Ex vivo biodistribution: Immediately after the CT scans, the animals were sacrificed, the blood, tissues and organs were collected, weighed and the radioactivity was measured using an automatic γ-counter (Wizard^2 2480, PerkinElmer). Values were expressed as percentage of the injected dose per gram (%ID/g).

[7] = HT-29 xenograft mice, 1 h p.i., N=3
[8] = ex vivo biodistribution, 1 h p.i.

SMILES: CN(CC(=O)O)C1(CCCCC(=O)NCCNc2c(NCCCCOc3ccc4nccc(C(=O)NCC(=O)N5CC(F)(F)C[C@H]5C#N)c4c3)c(=O)c2=O)CN(CC(=O)O)CCN(CC(=O)O)C1 [DATA^5m.SA.FAPi, (S)-2,2′-(6-((carboxymethyl)(methyl)amino)-6-(5-((2-((2-((4-((4-((2-(2-cyano-4,4-difluoropyrrolidin-1-yl)-2-oxoethyl)carbamoyl)quinolin-6-yl)oxy)butyl)amino)-3,4-dioxocyclobut-1-en-1-yl)amino)ethyl)amino)-5-oxopentyl)-1,4-diazepane-1,4-diyl) diacetic acid]
- IC50 [1]: 0.8 ± 0.2 nM
- Selectivity index (IC50 PREP / IC50 FAP) [1]: 2113
- IC50 [2]: 1700 ± 100 nM
- Stability in different media, intact conjugate ([3]; different media (summary statement)): more than 95%

SMILES: N#C[C@@H]1CC(F)(F)CN1C(=O)CNC(=O)c1ccnc2ccc(OCCCCNc3c(NCCNC(=O)CN4CCN(CC(=O)[O-])CCN(CC(=O)[O-])CCN(CC(=O)[O-])CC4)c(=O)c3=O)cc12.[68Ga+3] [[^68Ga]Ga-DOTA.SA.FAPi]
- Stability, intact conjugate ([3]; ethanol (EtOH), over 2 h at 37 °C): over 98%
- Stability, intact conjugate ([3]; human serum (HS), over 2 h): over 98%
- Stability, intact conjugate ([3]; saline 0.9% (NaCl), over 2 h): over 98%
- Stability against transmetallation ([4]; against Ca, after 2 h): > 95%
- Stability against transmetallation ([4]; against Cu, after 2 h): > 95%
- Stability against transchelation ([4]; against DTPA, after 2 h): over 98%
- Stability against transchelation ([4]; against EDTA, after 2 h): over 98%
- Stability against transmetallation ([4]; against Fe, after 90 min): > 95%
- Stability against transmetallation ([4]; against Fe, after 2 h): over 92%
- Stability against transmetallation ([4]; against Mg, after 2 h): > 95%
- SUVmean heart [5]: 0.15 ± 0.01 and 0.15
- SUVmean kidneys [5]: 0.27 ± 0.11 and 0.27
- SUVmean liver [5]: 0.22 ± 0.08 and 0.22
- SUVmean muscle [5]: 0.18 ± 0.07 and 0.18
- SUVmean small intestine [5]: 0.37 ± 0.14
- SUVmean tumor [5]: 0.75 ± 0.09 and 0.75
- Ex vivo biodistribution, Tumor ([6]; HT-29 xenograft mice, 1 h (60 min) p.i., N=3): 5.2 %ID/g
- Ex vivo biodistribution, Bladder [6, 7]: 0.96 %ID/g
- Ex vivo biodistribution, Blood [6, 7]: 0.56 %ID/g
- Ex vivo biodistribution, Bone [6, 7]: 3.56 %ID/g
- Ex vivo biodistribution, Brain [6, 7]: 1.27 %ID/g
- Ex vivo biodistribution, Fat [6, 7]: 0.38 %ID/g
- Ex vivo biodistribution, Heart [6, 7]: 0.22 %ID/g
- Ex vivo biodistribution, Kidneys [6, 7]: 1.77 %ID/g
- Ex vivo biodistribution, Large Intestine [6, 7]: 0.21 %ID/g
- Ex vivo biodistribution, Liver [6, 7]: 0.70 %ID/g
- Ex vivo biodistribution, Lungs [6, 7]: 0.33 %ID/g
- Ex vivo biodistribution, Muscle [6, 7]: 0.45 %ID/g
- Ex vivo biodistribution, Pancreas [6, 7]: 0.51 %ID/g
- Ex vivo biodistribution, Skin [6, 7]: 0.04 %ID/g
- Ex vivo biodistribution, Small Intestine [6, 7]: 1.81 %ID/g
- Ex vivo biodistribution, Spleen [6, 7]: 0.23 %ID/g
- Ex vivo biodistribution, Stomach [6, 7]: 0.21 %ID/g
- tumor-to-blood ratio [6, 8]: 9.2 ± 1.1
- tumor-to-bone ratio [6, 8]: 1.5 ± 0.2
- tumor-to-large intestine ratio [6, 8]: 24.9 ± 1.7
- tumor-to-muscle ratio [6, 8]: 11.5 ± 2.2
- tumor-to-small intestine ratio [6, 8]: 2.9 ± 0.8

SMILES: CN(CC(=O)[O-])C1(CCCCC(=O)NCCNc2c(NCCCCOc3ccc4nccc(C(=O)NCC(=O)N5CC(F)(F)C[C@H]5C#N)c4c3)c(=O)c2=O)CN(CC(=O)[O-])CCN(CC(=O)[O-])C1.[68Ga+3] [[^68Ga]Ga-DATA^5m.SA.FAPi]
- Stability, intact conjugate ([3]; human serum (HS), over 2 h): > 95%
- Stability, intact conjugate ([3]; phosphate buffered saline (PBS), over 120 min): > 95%
- Stability, intact conjugate ([3]; saline 0.9% (NaCl), over 2 h): > 95%

SMILES: CN(CC(=O)[O-])C1(CCCCC(=O)NCCNc2c(NCCCCOc3ccc4nccc(C(=O)NCC(=O)N5CC(F)(F)C[C@H]5C#N)c4c3)c(=O)c2=O)CN(CC(=O)[O-])CCN(CC(=O)[O-])C1.[Ga+3] [[^natGa]Ga-DATA^5m.SA.FAPi]
- IC50 [1]: 0.7 ± 0.1 nM
- Selectivity index (IC50 PREP / IC50 FAP) [1]: 6714
- IC50 [2]: 4700 ± 300 nM

SMILES: N#C[C@@H]1CC(F)(F)CN1C(=O)CNC(=O)c1ccnc2ccc(OCCCCNc3c(NCCNC(=O)CN4CCN(CC(=O)[O-])CCN(CC(=O)[O-])CCN(CC(=O)[O-])CC4)c(=O)c3=O)cc12.[Ga+3] [[^natGa]Ga-DOTA.SA.FAPi]
- IC50 [1]: 1.4 ± 0.2 nM
- IC50 [2]: 8700 ± 900 nM
